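GI50 marks 50% less growth. The concentration for full growth arrest is given as TGI.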
Columns and labels:
Test in all cases: NCI-60 cell line screen, 384-well format
NCI-H23 lung = tested on: NCI-H23 lung
IGROV1 ovarian = tested on: IGROV1 ovarian
MDA-MB-435 melanoma = tested on: MDA-MB-435 melanoma
SN12C renal = tested on: SN12C renal
U251 glioblastoma = tested on: U251 glioblastoma
OVCAR-8 ovarian = tested on: OVCAR-8 ovarian
EKVX NSCLC = tested on: EKVX NSCLC
UACC-62 melanoma = tested on: UACC-62 melanoma
KM12 colon = tested on: KM12 colon
COLO 205 colon = tested on: COLO 205 colon
SF-268 CNS = tested on: SF-268 CNS
DU-145 prostate = tested on: DU-145 prostate
HOP-62 NSCLC = tested on: HOP-62 NSCLC

Row | Compound | GI50 (NCI-H23 lung) [µM] | TGI (NCI-H23 lung) [µM] | GI50 (IGROV1 ovarian) [µM] | TGI (IGROV1 ovarian) [µM] | GI50 (MDA-MB-435 melanoma) [µM] | TGI (MDA-MB-435 melanoma) [µM] | GI50 (SN12C renal) [µM] | TGI (SN12C renal) [µM] | GI50 (U251 glioblastoma) [µM] | TGI (U251 glioblastoma) [µM] | GI50 (OVCAR-8 ovarian) [µM] | TGI (OVCAR-8 ovarian) [µM] | GI50 (EKVX NSCLC) [µM] | TGI (EKVX NSCLC) [µM] | GI50 (UACC-62 melanoma) [µM] | TGI (UACC-62 melanoma) [µM] | GI50 (KM12 colon) [µM] | TGI (KM12 colon) [µM] | GI50 (COLO 205 colon) [µM] | TGI (COLO 205 colon) [µM] | other results
1 | C=CC(=O)Nc1cc(Nc2nccc(-c3cn(C)c4ccccc34)n2)c(OC)cc1N(C)CCN(C)C | 1.87 | 3.67 | 0.44 | 1.88 | 2 | 3.55 | 1.33 | 3.13 | 1.8 | 3.25 | 1.42 | 2.76 | 0.617 | 2.17 | 1.64 | 3.02 | 2.56 | 5.72 | 1.59 | 2.95 | GI50 (SF-268 CNS): 1.49 µM; TGI (SF-268 CNS): 3.23 µM; GI50 (DU-145 prostate): 1.14 µM; TGI (DU-145 prostate): 2.61 µM; GI50 (HOP-62 NSCLC): 1.56 µM; TGI (HOP-62 NSCLC): 3.37 µM
2 | Cn1cc(-c2cc3c(N4CCN(c5ncc([C@@](C)(N)c6ccc(F)cc6)cn5)CC4)ncnn3c2)cn1 | 2.23 | 14.2 | 4.45 | 16.7 | 7.13 | 27 | 4.54 | 16.7 | 3.54 | 25.1 | 4.07 | > 50.8 | 2.97 | 31.6 | 4.42 | 17.8 | 4.11 | 28.1 | 2.73 | 6.51 | GI50 (SF-268 CNS): 7.57 µM; TGI (SF-268 CNS): 38.3 µM; GI50 (DU-145 prostate): 5.67 µM; TGI (DU-145 prostate): > 45.1 µM; GI50 (HOP-62 NSCLC): 3.14 µM; TGI (HOP-62 NSCLC): > 50.1 µM

Source: PubChem BioAssay (NCI)
